Read-outs that look alike come from different tables or passages of the source.
Key:
[1] = systemic exposure after i.p. and oral application of CBD in mice (Deiana et al. 2012); assay type: in vivo; settings: 20 mg/kg, assuming dose-proportional plasma concentrations
Description: A comparative investigation for systemic exposure after i.p. and oral application of CBD in mice and rats has shown that 120 mg/kg as a single dose leads to a maximum plasma concentration of 14,000 ng/ml in mice (S. Deiana et al. (2012). Plasma and brain pharmacokinetic profile of cannabidiol (CBD), cannabidivarine (CBDV), Delta(9)-tetrahydrocannabivarin (THCV) and cannabigerol (CBG) in rats and mice following oral and intraperitoneal administration and CBD action on obsessive-compulsive behaviour. Psychopharmacology (Bed) 219(3): 859-73).

[2] = decimal logarithm of n-octanol/water partition coefficient; cited from earlier work
[3] = mice, 120 mg/kg single dose; cited from earlier work
IL-6 secretion = settings: cellular models, majority of cases; cited from earlier work
[4] = system: LPS-induced acute lung injury; settings: cited from earlier work
[5] = system: LPS-induced acute lung injury; settings: mice, 20 mg/kg, 6 h after LPS; cited from earlier work
human mononuclear cells = settings: nanomolar or micromolar concentrations; cited from earlier work
human neutrophils = settings: cited from earlier work
CD83 = settings: cited from earlier work
microglial cells = settings: 1-16 μmol/l; cited from earlier work
[6] = system: chemically induced acute hepatitis; settings: mice, 25 mg/kg; cited from earlier work
[7] = system: activated memory T cell line; settings: 1-5 μmol/l, cited from earlier work
[8] = system: ischemia-reperfusion-induced kidney injury; settings: mice, 10 mg/kg after induced kidney injury; cited from earlier work
NK, NKT, T and B cells = settings: healthy rats, cited from earlier work
IL-6 receptor = biological target: T1, IL-6 receptor (Homo sapiens, UniProt P08887); settings: patients with severe SARS-CoV-2 pneumonia, preliminary clinical data; cited from earlier work
T1 construct: host or cells: patients (in vivo)
T1 sequence (P08887 20-468): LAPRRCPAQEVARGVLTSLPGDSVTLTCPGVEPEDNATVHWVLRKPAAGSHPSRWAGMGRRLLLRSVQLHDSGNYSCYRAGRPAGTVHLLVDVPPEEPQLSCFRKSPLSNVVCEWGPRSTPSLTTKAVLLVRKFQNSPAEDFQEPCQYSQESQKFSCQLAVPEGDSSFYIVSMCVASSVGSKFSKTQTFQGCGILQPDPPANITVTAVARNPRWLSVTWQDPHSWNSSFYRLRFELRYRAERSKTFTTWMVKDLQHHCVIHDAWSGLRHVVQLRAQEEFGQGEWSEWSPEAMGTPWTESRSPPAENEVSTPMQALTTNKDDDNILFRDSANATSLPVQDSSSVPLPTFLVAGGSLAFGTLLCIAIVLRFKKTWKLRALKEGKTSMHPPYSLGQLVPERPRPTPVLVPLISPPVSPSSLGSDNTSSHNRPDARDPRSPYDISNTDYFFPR

[9] = mice, 0.3-80 mg/kg i.p. 60 min before LPS

For `C=C(C)[C@@H]1CCC(C)=C[C@H]1c1c(O)cc(CCCCC)cc1O` [CBD, 2-[(1R,6R)-3-methyl-6-(1-methylethenyl)-2-cyclohexen-1-yl]-5-pentyl-1,3-benzenediol], the target peak exposure [1] is listed as 2,300 ng/ml, the “log P” value [2] is listed as “about 6.1” and the maximum plasma concentration [3] is listed as 14,000 ng/ml. For the same compound, the “effective concentration, suppressive effect on IL-6 secretion” value (IL-6 secretion) was ~5 µM, the “number of leukocytes including macrophages and neutrophils in bronchoalveolar lavage fluid” value ([4]; mice, 20 mg/kg, after LPS-induced lung inflammation) was “decreases” and the myeloperoxidase activity [4, 9] was “significantly decreased”. For the same compound, the “pro-inflammatory cytokine production including TNF-α and IL-6” value [4, 9] was “significantly decreased”, the total leukocytes migration [4, 9] was “significantly decreased” and the vascular permeability [4, 9] was “significantly decreased”. The “dose at which effects reached a nearly maximum extent” value ([4]; prophylactic application, i.p.) was 20 mg/kg, the “leukocyte migration (neutrophil, macrophages and lymphocytes) into the lungs” value [5] was “decreased” and the mechanical lung function [5] was “improved”. The “myeloperoxidase activity in the lung tissue” value [5] was “decreased”, the “production of proinflammatory cytokines/chemokines” value [5] was “reduced” and the vascular permeability [5] was “reduced”. For the same compound, the “release of pro-inflammatory cytokines” value (human mononuclear cells) was “suppressed”, the “migration of human neutrophils” value (human neutrophils) was “inhibits” and the “CD83 dendritic cell activation marker” value (CD83; dendritic cells derived from healthy individuals) was “not”. For the same compound, the “CD83 dendritic cell activation marker” value (CD83; dendritic cells derived from individuals with HIV infection) was “suppresses”, the “apoptosis in microglial cells” value (microglial cells) was “induces apoptosis” and the “expression of MDSCs” value [6] was “induces”. For the same compound, the “pro-inflammatory cytokines such as IL-2, TNF-α and IL-6” value [6] was “reduction”, the “IL-6 production and secretion” value [7] was “decreased” and the “production of IL-10” value [7] was “increased”. For the same compound, the “autoantigen-specific Th17 cell phenotype (IL-17)” value ([7]; dose-dependently) was “reduced”, the “decreased Treg17 and increased Th17 levels” value [8] was “reversed” and the “effect on induced kidney injury” value [8] was “renoprotective”. For the same compound, the “numbers of NK cells and NKT cells” value (NK, NKT, T and B cells; 2.5 mg/kg per day) was “increased”, the “numbers of NK cells and NKT cells” value (NK, NKT, T and B cells; 5 mg/kg per day) was “not affected” and the “number of T cells including T helper cells and cytotoxic T cells and of B cells” value (NK, NKT, T and B cells; daily 5 mg/kg) was “significantly reduced”.

In the case of “tocilizumab: humanized monoclonal antibody against the IL-6 receptor”, the “clinical effect of IL-6 blockade therapy” value (IL-6 receptor) is given as “beneficial effects”.
